Patent US5041567A, “Antibacterial monic acid derivatives” (Beecham Group plc, priority 1982, dated 1991)
In brackets after ≈: the same amount, converted by molar mass. Where two headings read alike, the source gives them in different places.

Assays:
[1] = system: M. suipneumoniae JF 435; assay: MIC against mycoplasma in vitro; type: cell-based; conditions: Mesomycoplasma hyopneumoniae, JF435, 144 h; M. suipneumoniae JF 435; 6 days, 37° C.; read-out: MIC
[2] = system: M. suipneumoniae HK(2); assay: MIC against mycoplasma in vitro; type: cell-based; conditions: Mesomycoplasma hyopneumoniae, 144 h; M. suipneumoniae HK(2); 6 days, 37° C.; read-out: MIC
[3] = system: M. suipneumoniae J2206/183^b; assay: MIC against mycoplasma in vitro; type: cell-based; conditions: Mesomycoplasma hyopneumoniae, 144 h; M. suipneumoniae J2206/183^b; 6 days, 37° C.; read-out: MIC
[4] = system: M. suipneumoniae MS 16; assay: MIC against mycoplasma in vitro; type: cell-based; conditions: Mesomycoplasma hyopneumoniae, MS16, 144 h; M. suipneumoniae MS 16; 6 days, 37° C.; read-out: MIC
[5] = system: M. suipneumoniae LABER; assay: MIC against mycoplasma in vitro; type: cell-based; conditions: Mesomycoplasma hyopneumoniae, 144 h; M. suipneumoniae LABER; 6 days, 37° C.; read-out: MIC
[6] = system: M. suipneumoniae TAM 6N; assay: MIC against mycoplasma in vitro; type: cell-based; conditions: Mesomycoplasma hyopneumoniae, TAM6N, 144 h; M. suipneumoniae TAM 6N; 6 days, 37° C.; read-out: MIC
[7] = system: M. suipneumoniae ATCC 25095; assay: MIC against mycoplasma in vitro; type: cell-based; conditions: Mesomycoplasma hyopneumoniae, ATCC25095, 144 h; M. suipneumoniae ATCC 25095; 6 days, 37° C.; read-out: MIC
[8] = system: M. suipneumoniae NCTC 10110; assay: MIC against mycoplasma in vitro; type: cell-based; conditions: Mesomycoplasma hyopneumoniae, NCTC10110, 144 h; M. suipneumoniae NCTC 10110; 6 days, 37° C.; read-out: MIC
[9] = system: M. hyorhinis ATCC 23234; assay: MIC against mycoplasma in vitro; type: cell-based; conditions: Mesomycoplasma hyorhinis, ATCC23234, 144 h; M. hyorhinis ATCC 23234; 6 days, 37° C.; read-out: MIC
[10] = system: M. hyorhinis ATCC 25021; assay: MIC against mycoplasma in vitro; type: cell-based; conditions: Mesomycoplasma hyorhinis, ATCC25021, 144 h; M. hyorhinis ATCC 25021; 6 days, 37° C.; read-out: MIC
[11] = system: M. hyosynoviae ATCC 25591; assay: MIC against mycoplasma in vitro; type: cell-based; conditions: 144 h; M. hyosynoviae ATCC 25591; 6 days, 37° C.; read-out: MIC
[12] = system: M. dispar NCTC 10125; assay: MIC against mycoplasma in vitro; type: cell-based; conditions: 144 h; M. dispar NCTC 10125; 6 days, 37° C.; read-out: MIC
[13] = system: E. coli ESS; assay: MIC against human bacteria in vitro; type: cell-based; conditions: Escherichia coli
[14] = system: P. mirabilis 889; assay: MIC against human bacteria in vitro; type: cell-based; conditions: Proteus mirabilis, 889, 18 h
[15] = system: K. aerogenes A; assay: MIC against human bacteria in vitro; type: cell-based; conditions: Klebsiella aerogenes, 18 h
[16] = system: Pasteurella multocida 1633; assay: MIC against human bacteria in vitro; type: cell-based; conditions: Pasteurella multocida, 1633, 18 h
[17] = system: Neisseria catarrhalis 1502; assay: MIC against human bacteria in vitro; type: cell-based; conditions: Neisseria, 1502, 18 h
[18] = system: Bacillus subtilis 6633; assay: MIC against human bacteria in vitro; type: cell-based
[19] = system: Sarcina lutea 8340; assay: MIC against human bacteria in vitro; type: cell-based; conditions: Micrococcus luteus, 8340, 18 h
[20] = system: Staph. aureus Oxford; assay: MIC against human bacteria in vitro; type: cell-based; conditions: Staphylococcus aureus; Staph. aureus Oxford; 5% chocolated horse blood agar, 18 hours; read-out: MIC
[21] = system: Staph. aureus Russell; assay: MIC against human bacteria in vitro; type: cell-based; conditions: Staphylococcus aureus
[22] = system: Staph. aureus W2827; assay: MIC against human bacteria in vitro; type: cell-based; conditions: Staphylococcus aureus
[23] = system: Strep. faecalis I; assay: MIC against human bacteria in vitro; type: cell-based; conditions: Enterococcus faecalis, 18 h
[24] = system: Strep. pyogenes R80/421-A; assay: MIC against human bacteria in vitro; type: cell-based; conditions: Streptococcus pyogenes
[25] = system: Strep. spp. 64/848-C; assay: MIC against human bacteria in vitro; type: cell-based; conditions: 18 h
[26] = system: Strep. pneumoniae CN33; assay: MIC against human bacteria in vitro; type: cell-based; conditions: Streptococcus pneumoniae
[27] = system: E. coli E1; assay: MIC against veterinary bacteria in vitro; conditions: Escherichia coli, E1, 18 h
Description: (§1) The activity of the compounds of the Examples against various veterinarily important bacteria, was assayed in vitro using two-fold serial dilutions in Diagnostic Sensitivity Test Agar inoculated with 10^4 organisms.

[28] = system: S. typhimurium S18; assay: MIC against veterinary bacteria in vitro; conditions: Salmonella enterica, TYPHIMURIUM, 18 h
Description: as §1

[29] = system: Bord. bronchiseptica B08; assay: MIC against veterinary bacteria in vitro; conditions: Bordetella bronchiseptica, B08, 18 h
Description: as §1

[30] = system: Past. multocida PA2; assay: MIC against veterinary bacteria in vitro; conditions: Pasteurella multocida, PA2, 18 h
Description: as §1

[31] = system: Staph. aureus B4 (pen. resistant); assay: MIC against veterinary bacteria in vitro; conditions: Staphylococcus aureus, 18 h
Description: as §1

[32] = system: Staph. aureus 152 (pen. sens); assay: MIC against veterinary bacteria in vitro; conditions: Staphylococcus aureus, 18 h
Description: as §1

[33] = system: Strep. suis (group D) SPS11; assay: MIC against veterinary bacteria in vitro; conditions: Streptococcus suis, 18 h
Description: as §1

[34] = system: Strep. uberis SPU1; assay: MIC against veterinary bacteria in vitro; conditions: Streptococcus uberis, SPU1, 18 h
Description: as §1

[35] = system: M. pneumoniae ATCC 15492; assay: MIC against mycoplasma in vitro; type: cell-based; conditions: Mycoplasmoides pneumoniae, ATCC15492, 144 h; M. pneumoniae ATCC 15492; 6 days, 37° C.; read-out: MIC

| SMILES | MIC [1] | MIC [2] | MIC [3] | MIC [4] | MIC [5] | MIC [6] | MIC [7] | MIC [8] | MIC [9] | MIC [10] | MIC [11] | MIC [12] | MIC [14] | MIC [15] | MIC [16] | MIC [17] | MIC [19] | MIC [23] | MIC [25] | MIC [27] | further results |
| --- | --- | --- | --- | --- | --- | --- | --- | --- | --- | --- | --- | --- | --- | --- | --- | --- | --- | --- | --- | --- | --- |
| C/C(=C/c1ncc(-c2ccccc2)o1)C[C@@H]1OC[C@H](C[C@@H]2O[C@H]2[C@@H](C)[C@H](C)O)[C@@H](O)[C@H]1O [Example 2, 2-{3-[5-(2,3-epoxy-5-hydroxy-4-methylhexyl)-3,4-dihydroxytetrahydropyran-2-yl]-2-methylprop-1(Z)-enyl}-5-phenyloxazole] | > 10 µg/mL | 10 µg/mL (≈ 22.5 µM) | 10 µg/mL (≈ 22.5 µM) | 5 µg/mL (≈ 11.3 µM) | 10 µg/mL (≈ 22.5 µM) | > 10 µg/mL | 10 µg/mL (≈ 22.5 µM) | 10 µg/mL (≈ 22.5 µM) | 10 µg/mL (≈ 22.5 µM) | 5 µg/mL (≈ 11.3 µM) | 5 µg/mL (≈ 11.3 µM) | 2.5 µg/mL (≈ 5.64 µM) | > 50 µg/mL | > 50 µg/mL | > 50 µg/mL | > 50 µg/mL | > 50 µg/mL | > 50 µg/mL | > 50 µg/mL | > 80 µg/mL | MIC ([13]; E. coli ESS, 5% chocolated horse blood agar, 18 hours, read-out: MIC): 25 µg/mL (≈ 56.4 µM); MIC ([18]; Bacillus subtilis 6633, 5% chocolated horse blood agar, 18 hours, read-out: MIC): 25 µg/mL (≈ 56.4 µM); MIC [20]: 25 µg/mL (≈ 56.4 µM); MIC ([21]; 18 h): > 50 µg/mL; MIC ([22]; W2827, 18 h): > 50 µg/mL; MIC ([24]; R80/421A, 18 h): > 50 µg/mL; MIC ([26]; CN33, 18 h): > 50 µg/mL; MIC [28]: > 80 µg/mL; MIC [29]: > 80 µg/mL; MIC [30]: 20 µg/mL (≈ 45.1 µM); MIC [31]: 20 µg/mL (≈ 45.1 µM); MIC [32]: 20 µg/mL (≈ 45.1 µM); MIC [33]: > 80 µg/mL; MIC [34]: 5 µg/mL (≈ 11.3 µM) |
| COC(=O)CCCCCCCc1cnc(/C=C(\C)C[C@@H]2OC[C@H](C[C@@H]3O[C@H]3[C@@H](C)[C@H](C)O)[C@@H](O)[C@H]2O)o1 [Example 7, 5-(7-Methoxycarbonylheptyl)-2-(1-normon-2-yl)oxazole A] | > 10 µg/mL | > 10 µg/mL | > 10 µg/mL | 10 µg/mL (≈ 19.1 µM) | 10 µg/mL (≈ 19.1 µM) | > 10 µg/mL | 10 µg/mL (≈ 19.1 µM) | 10 µg/mL (≈ 19.1 µM) | 10 µg/mL (≈ 19.1 µM) | 10 µg/mL (≈ 19.1 µM) | 5 µg/mL (≈ 9.55 µM) | 2.5 µg/mL (≈ 4.77 µM) | > 100 µg/mL | > 100 µg/mL | 2.5 µg/mL (≈ 4.77 µM) | 5 µg/mL (≈ 9.55 µM) | > 100 µg/mL | > 100 µg/mL | 10 µg/mL (≈ 19.1 µM) | > 80 µg/mL | MIC [35]: > 10 µg/mL; MIC ([13]; 18 h): 0.5 µg/mL (≈ 0.955 µM); MIC ([18]; Bacillus subtilis, 6633, 18 h): 2.5 µg/mL (≈ 4.77 µM); MIC ([21]; Staph. aureus Russell, 5% chocolated horse blood agar, 18 hours, read-out: MIC): 25 µg/mL (≈ 47.7 µM); MIC ([22]; Staph. aureus W2827, 5% chocolated horse blood agar, 18 hours, read-out: MIC): 25 µg/mL (≈ 47.7 µM); MIC ([24]; Strep. pyogenes R80/421-A, 5% chocolated horse blood agar, 18 hours, read-out: MIC): 25 µg/mL (≈ 47.7 µM); MIC ([26]; Strep. pneumoniae CN33, 5% chocolated horse blood agar, 18 hours, read-out: MIC): 25 µg/mL (≈ 47.7 µM); MIC [28]: > 80 µg/mL; MIC [29]: 40 µg/mL (≈ 76.4 µM); MIC [30]: 20 µg/mL (≈ 38.2 µM); MIC [31]: 5 µg/mL (≈ 9.55 µM); MIC [32]: 5 µg/mL (≈ 9.55 µM); MIC [33]: 80 µg/mL (≈ 153 µM); MIC [34]: 1.25 µg/mL (≈ 2.39 µM) |
